We go through one compound from patent US11098021B2, “Phenylsulfonamido-benzofuran derivatives and uses thereof in the treatment of proliferative diseases” (Memorial Sloan-Kettering Cancer Center, priority 2015, dated 2021).

Format in all cases: cell-based
The test system of assay [1] is MCL-1-addicted cancer cell-line, H82. The assay can be described thus: apoptosis induction in MCL-1-addicted cancer cell line H82. To be noted: H82 cells.
Assay [2] deals with DMS53, SW1417, and H82 cell lines. The assay can be described thus: selective apoptotic induction in cell lines addicted to BCL-2, BCL-XL or MCL-1. Particulars: MCL-1 addicted cancer cell line (H82) over BCL-2 (DMS53) or BCL-XL (SW1417) addicted cancer cell lines; FIG. 2B.
In assay [3] the test system is MCL-1-addicted cancer cell-line, H23. The assay is described as follows: apoptosis induction in MCL-1-addicted cancer cell line H23. Particulars: H23 cells.
Where [4] appears, read: 1 µM of compound, FIG. 1B legend.

For the compound `CCOC(=O)c1c(C)oc2cc(Br)c(NS(=O)(=O)c3ccc(OC)cc3)cc12` [Compound 1], the apoptosis induction entry in assay [1] (1 μM of compound, FIG. 1B) is recorded as “robust apoptosis”; in assay [1] (setting [4]) it was “robust apoptosis”; in assay [3] (1 μM of compound, FIG. 1B) it was “robust apoptosis”; in assay [3] (setting [4]), “robust apoptosis”. Moreover, the “selectivity of apoptosis induction” value in assay [2] is “selectively induce apoptosis”.
